Experiments:
asparaginase I [1] = test: Effect of inducer and media composition on asparaginase I production; assay type: cell-based, Rhodococcus sp. DAP 96253; conditions: inducer 1000 ppm; for Asparaginase I levels, YEMEA - Glucose With Cobalt / Asparaginase I levels, YEMEA - Glucose Without Cobalt / Asparaginase I levels, YEMEA - Maltose With Cobalt / Asparaginase I levels, YEMEA - Maltose Without Cobalt: Rhodococcus sp. DAP 96253
Method: Testing was performed to evaluate the effect on asparaginase I activity based upon the inducer used. In particular, testing was performed using asparagine, glutamine, succinonitrile, and isovaleronitrile as inducers (all added at 1000 ppm each).

amidase [2] = test: Amidase production on supplemented medium; assay type: cell-based; conditions: YEMEA, urea, cobalt, supplement 3.8 mM
Method: (§1) The induction of nitrile hydratase production and amidase production in various nitrile hydratase producing microorganisms was evaluated. All strains were grown on YEMEA medium containing 7.5 g/L of urea and 10 ppm cobalt (provided as cobalt chloride) supplemented with asparagine (ASN), glutamine (GLN), or both asparagine and glutamine. The asparagine and glutamine were added at a concentration of 3.8 mM. As a comparative, enzyme production with no supplementation was also tested. Growth temperature was in the range of 26° C. to 30° C.

nitrile hydratase [3] = test: Nitrile hydratase production on supplemented medium; assay type: cell-based; conditions: YEMEA, urea, cobalt, supplement 3.8 mM
Method: as §1

amidase [4] = test: Amidase induction by inducers (Example 1); assay type: cell-based, Rhodococcus sp., strain DAP 96253; conditions: for Amidase Activity: Rhodococcus sp. DAP 96253, YEMEA, 10 ppm cobalt, 7.5 g/L urea, inducer 1000 ppm
Method: (§2) The induction of nitrile hydratase activity and amidase activity in Rhodococcus sp., strain DAP 96253, was evaluated using multiple types of inducers (1000 ppm). Three different samples were cultured in YEMEA medium containing 10 ppm cobalt and 7.5 g/L urea and supplemented with acrylonitrile, asparagine, or glutamine. The specific nitrile hydratase activity and the specific amidase activity in each sample was evaluated, and the results are provided below in Table 3, with activities provided in units/mg cdw (cell dry weight). One unit of nitrile hydratase activity relates to the ability to convert 1 μmol of acrylonitrile to its corresponding amide per minute, per milligram of cells (dry weight) at a pH of 7.0 and a temperature of 30° C. One unit of amidase activity relates to the ability to convert 1 μmol of acrylamide to its corresponding acid per minute, per milligram of cells (dry weight) pH of 7.0 and a temperature of 30° C.

asparaginase I [5] = test: Asparaginase I production on supplemented medium; assay type: cell-based; conditions: YEMEA, 7.5 g/L urea, 10 ppm cobalt
Method: as §1, with “asparaginase I” for “nitrile hydratase production and amidase”, “production” for “production with no supplementation”, “evaluated with supplementation with acrylonitrile (AN), acrylamide (AMD) or acrylonitrile and acrylamide.” for “tested.”

[6] = test system: Rhodococcus sp. DAP 96253 ATCC 55899; test: Growth on supplemented YEMEA (visual grade); assay type: cell-based; parameters: key: (−) meaning no detectable growth; (+/−) meaning scant growth; (+) meaning little growth; (++) meaning good growth; (+++) meaning very good growth; (++++) meaning excellent growth; conditions: 30 °C, 7.5 g/L urea, 10 ppm cobalt, supplement 3.8 mM
Method: (§3) The relative growth of various nitrile hydratase producing microorganisms was evaluated. All strains were grown on YEMEA medium containing 7.5 g/L of urea and 10 ppm cobalt (provided as cobalt chloride) supplemented with asparagine (ASN), glutamine (GLN), or both asparagine and glutamine. The asparagine and glutamine were added at a concentration of 3.8 mM. Growth temperature was in the range of 26° C. to 30° C. Growth was evaluated by visual inspection and graded on the following scale: (−) meaning no detectable growth; (+/−) meaning scant growth; (+) meaning little growth; (++) meaning good growth; (+++) meaning very good growth; and (++++) meaning excellent growth.

[7] = test system: Pseudomonas chloroaphis ATCC 43051; test: Growth on supplemented YEMEA (visual grade); assay type: cell-based; parameters: key: (−) meaning no detectable growth; (+/−) meaning scant growth; (+) meaning little growth; (++) meaning good growth; (+++) meaning very good growth; (++++) meaning excellent growth; conditions: 30 °C, 7.5 g/L urea, 10 ppm cobalt, supplement 3.8 mM
Method: as §3

[8] = test system: Brevibacterium ketoglutaricum ATCC 21533; test: Growth on supplemented YEMEA (visual grade); assay type: cell-based; parameters: key: (−) meaning no detectable growth; (+/−) meaning scant growth; (+) meaning little growth; (++) meaning good growth; (+++) meaning very good growth; (++++) meaning excellent growth; conditions: 30 °C, 7.5 g/L urea, 10 ppm cobalt, supplement 3.8 mM
Method: as §3

[9] = test system: Rhodococcus erythropolis ATCC 47072; test: Growth on supplemented YEMEA (visual grade); assay type: cell-based; parameters: key: (−) meaning no detectable growth; (+/−) meaning scant growth; (+) meaning little growth; (++) meaning good growth; (+++) meaning very good growth; (++++) meaning excellent growth; conditions: 26 °C, 7.5 g/L urea, 10 ppm cobalt, supplement 3.8 mM
Method: as §3

[10] = test system: Rhodococcus rhodochrous DAP 96622 ATCC 55898; test: Growth on supplemented YEMEA (visual grade); assay type: cell-based; parameters: key: (−) meaning no detectable growth; (+/−) meaning scant growth; (+) meaning little growth; (++) meaning good growth; (+++) meaning very good growth; (++++) meaning excellent growth; conditions: 26 °C, 7.5 g/L urea, 10 ppm cobalt, supplement 3.8 mM
Method: as §3

[11] = test system: Pseudomonas chloroaphis ATCC 13985; test: Growth on supplemented YEMEA (visual grade); assay type: cell-based; parameters: key: (−) meaning no detectable growth; (+/−) meaning scant growth; (+) meaning little growth; (++) meaning good growth; (+++) meaning very good growth; (++++) meaning excellent growth; conditions: 26 °C, 7.5 g/L urea, 10 ppm cobalt, supplement 3.8 mM
Method: as §3

nitrile hydratase [12] = test: Nitrile hydratase induction by inducers (Example 1); assay type: cell-based, Rhodococcus sp., strain DAP 96253; conditions: inducer 1000 ppm; for Nitrile Hydratase Activity: Rhodococcus sp. DAP 96253, YEMEA, 10 ppm cobalt, 7.5 g/L urea
Method: as §2

[13] = Brevibacterium ketoglutaricum ATCC 21533, 30 °C
[14] = Pseudomonas chloroaphis ATCC 13985, 26 °C
[15] = Pseudomonas chloroaphis ATCC 43051, 30 °C
[16] = Rhodococcus erythropolis ATCC 47072, 26 °C
[17] = Rhodococcus rhodochrous DAP 96622 ATCC 55898, 26 °C
[18] = Rhodococcus sp. DAP 96253 ATCC 55899, 30 °C

Structure (SMILES): N#CCCC#N [Succinonitrile, succinonitrile, reference compound]
- Asparaginase I levels, YEMEA - Glucose With Cobalt (asparaginase I [1]): 8.5 units/mg cell dry weight
- Asparaginase I levels, YEMEA - Glucose Without Cobalt (asparaginase I [1]): 6.5 units/mg cell dry weight
- Asparaginase I levels, YEMEA - Maltose With Cobalt (asparaginase I [1]): 10.0 units/mg cell dry weight
- Asparaginase I levels, YEMEA - Maltose Without Cobalt (asparaginase I [1]): 11.0 units/mg cell dry weight
- ability to induce asparaginase I activity (asparaginase I [1]): showed an ability to induce asparaginase I activity

Structure (SMILES): CC(C)CC#N [Isovaleronitrile, isovaleronitrile, reference compound]
- Asparaginase I levels, YEMEA - Glucose With Cobalt (asparaginase I [1]): 2.9 units/mg cell dry weight
- Asparaginase I levels, YEMEA - Glucose Without Cobalt (asparaginase I [1]): 3.5 units/mg cell dry weight
- Asparaginase I levels, YEMEA - Maltose With Cobalt (asparaginase I [1]): 7.0 units/mg cell dry weight
- Asparaginase I levels, YEMEA - Maltose Without Cobalt (asparaginase I [1]): 6.8 units/mg cell dry weight

Structure (SMILES): NC(=O)CC[C@H](N)C(=O)O [Glutamine, glutamine]
- Asparaginase I levels, YEMEA - Glucose With Cobalt (asparaginase I [1]): 1.9 units/mg cell dry weight
- Asparaginase I levels, YEMEA - Glucose Without Cobalt (asparaginase I [1]): 1.5 units/mg cell dry weight
- Asparaginase I levels, YEMEA - Maltose With Cobalt (asparaginase I [1]): 8.1 units/mg cell dry weight
- Asparaginase I levels, YEMEA - Maltose Without Cobalt (asparaginase I [1]): 9.3 units/mg cell dry weight
- ability to induce asparaginase I activity (asparaginase I [1]): showed an ability to induce asparaginase I activity
- Amidase Level Based on Growth Medium Supplementation (amidase [2]; [13]): 0 Units/mg cdw
- Amidase Level Based on Growth Medium Supplementation (amidase [2]; [14]): 0 Units/mg cdw
- Amidase Level Based on Growth Medium Supplementation (amidase [2]; [15]): No
- Amidase Level Based on Growth Medium Supplementation (amidase [2]; [16]): 14 Units/mg cdw
- Amidase Level Based on Growth Medium Supplementation (amidase [2]; [17]): 6 Units/mg cdw
- Amidase Level Based on Growth Medium Supplementation (amidase [2]; [18]): 7 Units/mg cdw
- Nitrile Hydratase Level Based on Growth Medium Supplementation (nitrile hydratase [3]; [13]): 37 Units/mg cdw
- Nitrile Hydratase Level Based on Growth Medium Supplementation (nitrile hydratase [3]; [14]): 0 Units/mg cdw
- Nitrile Hydratase Level Based on Growth Medium Supplementation (nitrile hydratase [3]; [15]): No
- Nitrile Hydratase Level Based on Growth Medium Supplementation (nitrile hydratase [3]; [16]): 42 Units/mg cdw
- Nitrile Hydratase Level Based on Growth Medium Supplementation (nitrile hydratase [3]; [17]): 160 Units/mg cdw
- Nitrile Hydratase Level Based on Growth Medium Supplementation (nitrile hydratase [3]; [18]): 135 Units/mg cdw
- Amidase Activity (amidase [4]): 10.39 Units/mg cdw
- amidase activity greater than that resulting from acrylonitrile (amidase [4]; relative to acrylonitrile as inducer, 1000 ppm): approximately 37%
- Asparaginase I Level Based on Growth Medium Supplementation (asparaginase I [5]; [13]): 20.3 Units/mg cdw
- Asparaginase I Level Based on Growth Medium Supplementation (asparaginase I [5]; [14]): 0 Units/mg cdw
- Asparaginase I Level Based on Growth Medium Supplementation (asparaginase I [5]; [15]): No
- Asparaginase I Level Based on Growth Medium Supplementation (asparaginase I [5]; [16]): 2 Units/mg cdw
- Asparaginase I Level Based on Growth Medium Supplementation (asparaginase I [5]; [17]): 10 Units/mg cdw
- Asparaginase I Level Based on Growth Medium Supplementation (asparaginase I [5]; [18]): 11.1 Units/mg cdw
- Growth [6]: ++++
- Growth [7]: −
- Growth [8]: +
- Growth [9]: ++
- Growth [10]: ++++
- Growth [11]: +
- Nitrile Hydratase Activity (nitrile hydratase [12]): 173.45 Units/mg cdw
- nitrile hydratase induction compared with acrylonitrile (nitrile hydratase [12]): exceeds the ability of acrylonitrile to induce such activity

Structure (SMILES): C=CC(N)=O [AMD, acrylamide, reference compound]
- Asparaginase I Level Based on Growth Medium Supplementation (asparaginase I [5]; [13]): 15.4 Units/mg cdw
- Asparaginase I Level Based on Growth Medium Supplementation (asparaginase I [5]; [14]): 0 Units/mg cdw
- Asparaginase I Level Based on Growth Medium Supplementation (asparaginase I [5]; [16]): 0 Units/mg cdw
- Asparaginase I Level Based on Growth Medium Supplementation (asparaginase I [5]; [17]): 7.8 Units/mg cdw
- Asparaginase I Level Based on Growth Medium Supplementation (asparaginase I [5]; [18]): 2 Units/mg cdw

Structure (SMILES): C=CC#N [Acrylonitrile, acrylonitrile, reference compound]
- Amidase Activity (amidase [4]): 7.59 Units/mg cdw
- Asparaginase I Level Based on Growth Medium Supplementation (asparaginase I [5]; [13]): 14.6 Units/mg cdw
- Asparaginase I Level Based on Growth Medium Supplementation (asparaginase I [5]; [14]): 2 Units/mg cdw
- Asparaginase I Level Based on Growth Medium Supplementation (asparaginase I [5]; [17]): 8.2 Units/mg cdw
- Asparaginase I Level Based on Growth Medium Supplementation (asparaginase I [5]; [18]): 7.8 Units/mg cdw
- Nitrile Hydratase Activity (nitrile hydratase [12]): 162.23 Units/mg cdw

Source: US20130035232A1, “INDUCTION AND STABILIZATION OF ENZYMATIC ACTIVITY IN MICROORGANISMS” (GEORGIA STATE UNIVERSITY RESEARCH FOUNDATION, INC., priority 2010, published 2013)
